{"source": "patent US20240174671A1", "about": "“New 2,3-Dihydro-1H-pyrrolo[3,2-b]pyridine Derivatives as Sigma Ligands” (ACONDICIONAMIENTO TARRASENSE, priority 2021, published 2024)", "key": {"sigma-2 site": {"biological_target": "sigma-2 site (Homo sapiens, UniProt Q5BJF2)", "sequence (Q5BJF2 whole entry)": "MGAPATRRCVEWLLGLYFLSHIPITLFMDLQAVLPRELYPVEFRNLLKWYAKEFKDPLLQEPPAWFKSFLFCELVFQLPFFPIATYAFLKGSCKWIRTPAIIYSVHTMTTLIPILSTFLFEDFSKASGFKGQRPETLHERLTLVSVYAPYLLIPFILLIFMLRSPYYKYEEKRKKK", "conditions": "background statement; cited from earlier work"}, "[1]": {"test_system": "mechanical hypersensitivity in SNI mice", "conditions": "SNI mice model of neuropathic pain; cited from earlier work"}, "human σ2/TMEM97 receptor": {"biological_target": "T1, human σ2/TMEM97 receptor (Homo sapiens, UniProt Q5BJF2)", "T1 construct": "expressed in transfected cells; host or cells: HEK-293", "T1 sequence (Q5BJF2 whole entry)": "as above", "assay": "Binding assay to human σ2/TMEM97 receptor ([3H]-DTG)", "conditions": "transfected HEK-293 membranes, 10 nM [3H]-DTG, 25° C., 120 minutes; read-out: Binding σ-[…] (binding to σ2-receptor expressed as Ki)", "how_it_was_run": "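Membranes from transfected HEK-293 cells incubated with 10 nM [3H]-DTG in 50 mM Tris-HCl pH 8.0, 120 min at 25 °C; non-specific binding defined with 10 μM haloperidol. Bound radioactivity counted after filtration; compounds tested as % inhibition at 1 or 10 μM or at five concentrations for Ki.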"}, "human σ1 receptor": {"biological_target": "T2, human σ1 receptor (Homo sapiens, UniProt Q99720)", "T2 construct": "expressed in transfected cells; host or cells: HEK-293", "T2 sequence (Q99720 whole entry)": "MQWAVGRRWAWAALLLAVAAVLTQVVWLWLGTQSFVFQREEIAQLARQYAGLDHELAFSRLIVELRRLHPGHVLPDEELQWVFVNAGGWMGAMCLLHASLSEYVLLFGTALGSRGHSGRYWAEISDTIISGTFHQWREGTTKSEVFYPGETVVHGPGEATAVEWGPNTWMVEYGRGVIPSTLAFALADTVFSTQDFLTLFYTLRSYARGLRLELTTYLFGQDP", "assay": "Human σ1 receptor radioligand assay ([3H](+)-pentazocine)", "assay_type": "binding", "conditions": "transfected HEK-293 membranes, 5 nM [3H](+)-pentazocine, 37° C., 120 minutes; read-out: Binding σ-[…] (binding to σ1-receptor expressed as Ki)", "how_it_was_run": "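Binding used [3H](+)-pentazocine, 120 min at 37° C, with non-specific binding defined by 10 μM haloperidol. Bound radioligand was collected by filtration, washed with ice-cold 10 mM Tris-HCl pH 7.4 and counted by scintillation.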"}}, "data": [{"compound": "(+)-SKF-10047", "values": [{"measurement": "affinity for the sigma-2 site", "setting": "sigma-2 site", "result": "micromolar affinity"}]}, {"compound": "UKH-1114", "values": [{"measurement": "mechanical hypersensitivity", "setting": "[1]", "result": "relieved mechanical hypersensitivity"}]}, {"compound": "Cc1ccc2c(n1)C(C)(C)CN2C(=O)[C@H]1CN(Cc2ccccc2)C[C@@H]1C", "note": "[Example 125, ((3R,4R)-1-benzyl-4-methylpyrrolidin-3-yl)(3,3,5-trimethyl-2,3-dihydro-1H-pyrrolo[3,2-b]pyridin-1-yl)methanone]", "values": [{"measurement": "Ki", "setting": "human σ2/TMEM97 receptor", "result": "100 to 500", "unit": "nM"}, {"measurement": "Ki", "setting": "human σ1 receptor", "result": "< 100", "unit": "nM"}]}, {"compound": "CC1(C)CN(C(=O)N2CCC3(CCN(CC4CCOCC4)CC3)CC2)c2cccnc21", "note": "[Example 166, (3,3-dimethyl-2,3-dihydro-1H-pyrrolo[3,2-b]pyridin-1-yl)(9-((tetrahydro-2H-pyran-4-yl)methyl)-3,9-diazaspiro[5.5]undecan-3-yl)methanone]", "values": [{"measurement": "Ki", "setting": "human σ2/TMEM97 receptor", "result": "< 100", "unit": "nM"}, {"measurement": "Ki", "setting": "human σ1 receptor", "result": "100 to 500", "unit": "nM"}]}, {"compound": "CN(Cc1cccc(F)c1)C1CCN(C(=O)N2CC(C)(C)c3ncccc32)CC1", "note": "[Example 85, (3,3-dimethyl-2,3-dihydro-1H-pyrrolo[3,2-b]pyridin-1-yl)(4-((3-fluorobenzyl)(methyl)amino)piperidin-1-yl)methanone]", "values": [{"measurement": "Ki", "setting": "human σ2/TMEM97 receptor", "result": "100 to 500", "unit": "nM"}, {"measurement": "Ki", "setting": "human σ1 receptor", "result": "500 to 1000", "unit": "nM"}]}, {"compound": "Cc1ccc2c(n1)C(C)(C)CN2C(=O)N1CCC2(CCN(Cc3ccc(F)c(C#N)c3)CC2)CC1", "note": "[Example 162, 2-fluoro-5-((9-(3,3,5-trimethyl-2,3-dihydro-1H-pyrrolo[3,2-b]pyridine-1-carbonyl)-3,9-diazaspiro[5.5]undecan-3-yl)methyl)benzonitrile]", "values": [{"measurement": "Ki", "setting": "human σ2/TMEM97 receptor", "result": "100 to 500", "unit": "nM"}, {"measurement": "Ki", "setting": "human σ1 receptor", "result": "100 to 500", "unit": "nM"}]}, {"compound": "Cc1ccc2c(n1)C(C)(C)CN2C(=O)[C@H]1C[C@@H](N(C)Cc2ccccc2)C1", "note": "[Example 139, ((1s,3s)-3-(benzyl(methyl)amino)cyclobutyl)(3,3,5-trimethyl-2,3-dihydro-1H-pyrrolo[3,2-b]pyridin-1-yl)methanone]", "values": [{"measurement": "Ki", "setting": "human σ2/TMEM97 receptor", "result": "100 to 500", "unit": "nM"}, {"measurement": "Ki", "setting": "human σ1 receptor", "result": "100 to 500", "unit": "nM"}]}, {"compound": "COc1ccc(CN2CCC3(CC2)CCN(C(=O)N2CC(C)(C)c4nc(C)ccc42)C3)cc1", "note": "[Example 103, (8-(4-methoxybenzyl)-2,8-diazaspiro[4.5]decan-2-yl)(3,3,5-trimethyl-2,3-dihydro-1H-pyrrolo[3,2-b]pyridin-1-yl)methanone]", "values": [{"measurement": "Ki", "setting": "human σ2/TMEM97 receptor", "result": "< 100", "unit": "nM"}, {"measurement": "Ki", "setting": "human σ1 receptor", "result": "100 to 500", "unit": "nM"}]}, {"compound": "Cc1ccc2c(n1)C(C)(C)CN2C(=O)N(C)C[C@@H](c1ccccc1)N(C)C", "note": "[Example 8, (R)—N-(2-(dimethylamino)-2-phenylethyl)-N,3,3,5-tetramethyl-2,3-dihydro-1H-pyrrolo[3,2-b]pyridine-1-carboxamide]", "values": [{"measurement": "Ki", "setting": "human σ2/TMEM97 receptor", "result": "> 1000", "unit": "nM"}, {"measurement": "Ki", "setting": "human σ1 receptor", "result": "500 to 1000", "unit": "nM"}]}, {"compound": "CN(Cc1ccccc1)C1CCN(C(=O)N2CC(C)(C)c3ncccc32)CC1", "note": "[Example 29, (4-(benzyl(methyl)amino)piperidin-1-yl)(3,3-dimethyl-2,3-dihydro-1H-pyrrolo[3,2-b]pyridin-1-yl)methanone]", "values": [{"measurement": "Ki", "setting": "human σ2/TMEM97 receptor", "result": "< 100", "unit": "nM"}, {"measurement": "Ki", "setting": "human σ1 receptor", "result": "100 to 500", "unit": "nM"}]}, {"compound": "CC1(C)CN(C(=O)N2CCC3(CCN(Cc4ccc(F)c(C#N)c4)CC3)C2)c2cccnc21", "note": "[Example 143, 5-((2-(3,3-dimethyl-2,3-dihydro-1H-pyrrolo[3,2-b]pyridine-1-carbonyl)-2,8-diazaspiro[4.5]decan-8-yl)methyl)-2-fluorobenzonitrile]", "values": [{"measurement": "Ki", "setting": "human σ2/TMEM97 receptor", "result": "< 100", "unit": "nM"}, {"measurement": "Ki", "setting": "human σ1 receptor", "result": "100 to 500", "unit": "nM"}]}, {"compound": "Cc1ccc2c(n1)C(C)(C)CN2C(=O)N[C@@H]1CCN(Cc2ccccc2)C1", "note": "[Example 18, (R)—N-(1-benzylpyrrolidin-3-yl)-3,3,5-trimethyl-2,3-dihydro-1H-pyrrolo[3,2-b]pyridine-1-carboxamide]", "values": [{"measurement": "Ki", "setting": "human σ2/TMEM97 receptor", "result": "100 to 500", "unit": "nM"}, {"measurement": "Ki", "setting": "human σ1 receptor", "result": "100 to 500", "unit": "nM"}]}, {"compound": "Cc1ccc2c(n1)C(C)(C)CN2C(=O)N1CCC(N(C)Cc2cccc(F)c2)CC1", "note": "[Example 116, (4-((3-fluorobenzyl)(methyl)amino)piperidin-1-yl)(3,3,5-trimethyl-2,3-dihydro-1H-pyrrolo[3,2-b]pyridin-1-yl)methanone]", "values": [{"measurement": "Ki", "setting": "human σ2/TMEM97 receptor", "result": "< 100", "unit": "nM"}, {"measurement": "Ki", "setting": "human σ1 receptor", "result": "500 to 1000", "unit": "nM"}]}, {"compound": "CC(C)CCN(C)[C@H]1CCCCN(C(=O)N2CCc3ncccc32)C1", "note": "[Example 122, (S)-(2,3-dihydro-1H-pyrrolo[3,2-b]pyridin-1-yl)(3-(isopentyl(methyl)amino)azepan-1-yl)methanone]", "values": [{"measurement": "Ki", "setting": "human σ2/TMEM97 receptor", "result": "100 to 500", "unit": "nM"}, {"measurement": "Ki", "setting": "human σ1 receptor", "result": "< 100", "unit": "nM"}]}, {"compound": "Cc1ccc2c(n1)C(C)(C)CN2C(=O)NC1CCN(Cc2cccc(F)c2)CC1", "note": "[Example 26, N-(1-(3-fluorobenzyl)piperidin-4-yl)-3,3,5-trimethyl-2,3-dihydro-1H-pyrrolo[3,2-b]pyridine-1-carboxamide]", "values": [{"measurement": "Ki", "setting": "human σ2/TMEM97 receptor", "result": "> 1000", "unit": "nM"}, {"measurement": "Ki", "setting": "human σ1 receptor", "result": "< 100", "unit": "nM"}]}, {"compound": "Cc1ccc2c(n1)C(C)(C)CN2C(=O)NC1CCN(CC(C)C)CC1", "note": "[Example 41, N-(1-isobutylpiperidin-4-yl)-3,3,5-trimethyl-2,3-dihydro-1H-pyrrolo[3,2-b]pyridine-1-carboxamide]", "values": [{"measurement": "Ki", "setting": "human σ2/TMEM97 receptor", "result": "> 1000", "unit": "nM"}, {"measurement": "Ki", "setting": "human σ1 receptor", "result": "100 to 500", "unit": "nM"}]}, {"compound": "Cc1ccc2c(n1)C(C)(C)CN2C(=O)N1CCC2(CCN(Cc3ccccc3)CC2)CC1", "note": "[Example 57, (9-benzyl-3,9-diazaspiro[5.5]undecan-3-yl)(3,3,5-trimethyl-2,3-dihydro-1H-pyrrolo[3,2-b]pyridin-1-yl)methanone]", "values": [{"measurement": "Ki", "setting": "human σ2/TMEM97 receptor", "result": "< 100", "unit": "nM"}, {"measurement": "Ki", "setting": "human σ1 receptor", "result": "< 100", "unit": "nM"}]}]}
